Data from patent US20250281564A1, “DYSREGULATION OF NEUROPROTEASOMES BY APOE ISOFORMS DRIVES ENDOGENOUS TAU AGGREGATION” (The Trustees of Columbia University in the City of New York, priority 2022, published 2025).

Tests used:
proteasome [1] = molecular target: proteasome (Homo sapiens, UniProt P28072+P28074+Q99436); test: Efficacy against the proteasome relative to the parent inhibitor; assay type: biochemical
From the text: (§1) We next tested the potency and selectivity of iBEp relative to Epoxomicin. Epoxomicin covalently and irreversibly binds the catalytic β subunits of the proteasome-therefore, the biotin moiety on iBEp serves as a tracer to detect whether proteasomes are inhibited by monitoring biotin signal on an SDS-PAGE gel (83, 87-89). […] This is supported by previous data that modification of the non-reactive end of epoxomicin has been shown not to change the selectivity of Epoxomicin for the proteasome (83, 87-89). […] We therefore chose doses of inhibitor where the effective concentration of the inhibitor was similar to previous studies using Epoxomicin alone and well within the acceptable range of efficacy given how potent Epoxomicin is as a proteasome inhibitor.
Many of our experiments rely on the use of iBEp because the biotin tracer on an irreversible and specific inhibitor allows us to track which proteasomes are inhibited. However, we wanted to validate our findings using a proteasome inhibitor with a distinct mechanism of action from Epoxomicin. We therefore modified MG132, a reversible peptide aldehyde proteasome inhibitor, with a sulfonated biotin linker on the nonreactive N-terminus (84). […] Instead, we turned to cellular and functional readouts of permeability. […]

human Tau = test: Sarkosyl fractionation and Tau immunoblot, hTau-KI primary cortical neurons; assay type: cell-based; conditions: 1 μM, 12 hours, vs DMSO
From the text: (§2) (FIG. 5A) Effect of neuroproteasome-specific inhibitor iBEp on Tau aggregation in primary neurons. […] Quantification of soluble and insoluble murine Tau (mTau) intensities normalized to soluble GAPDH. […] (FIG. 5B) Effect of neuroproteasome inhibition on aggregation of human Tau (hTau). […] (FIG. 5C) Generation of reversible neuroproteasome inhibitors to test effects of neuroproteasome inhibition. (Top) Structure of Sulfo-MG132 (SulfoMG). […] (FIG. 5D) Effect of reversible neuroproteasome inhibition using SulfoMG on Tau aggregation. […] Quantification of soluble and insoluble Tau intensities were normalized to soluble GAPDH. Data (right) are mean±SEM normalized respective to DMSO controls. […] (FIG. 5E) Testing iBEp permeability in vivo. […] 72 hours post injection, hippocampi were isolated and subjected to membrane fractionation without detergent. […] (FIG. 5F) Effect of neuroproteasome inhibition on Tau aggregation in vivo.

p62, LC3bI/II, Ulk1 = test: Autophagy marker immunoblot in primary neurons; assay type: cell-based, mouse; conditions: 12 hours, DIV14 WT primary cortical neurons
From the text: (§3) (FIG. 4A) (Top) Structure of azide-PEG24-epoxomicin handle to enable rapid conjugation of linkers to global proteasome inhibitor epoxomicin using Click chemistry. (Bottom) Structure of Neuroproteasome-specific inhibitor impermeant Biotin-PEG24-Epoxomicin (iBEp). (FIG. 4B) Assessing permeability of iBEp in primary neurons. […] Cytosolic (Cyto) and membrane (Mem) fractions were immunoblotted using indicated antibodies. (FIG. 4C) Proteasome catalytic activity of membrane (Mem) and cytosolic (Cyto) fractions of neurons treated with iBEp. […] Proteasome catalytic activity was assessed by monitoring degradation of Suc-LLVY-AMC; proteasome-dependent cleavage of the substrate increases AMC fluorescence. N=3 biological replicates. **** p<0.0001 by One-Way ANOVA. (FIG. 4D) Primary neurons treated with iBEp probed for autophagy markers. […] Lysates were immunoblotted using indicated antibodies against common autophagy markers. Quantification of p62, LC3b, and Ulk1 intensities normalized to Actin. […] (FIG. 4E) Schematic to analyze changes in sarkosyl-soluble and insoluble proteomes in response to neuroproteasome inhibition. […] Sarkosyl-soluble and insoluble fractions were labeled with Tandem Mass Tags (TMTpro) for quantitative mass spectrometry. (FIG. 4F) Differential enrichment of proteins in the sarkosyl-soluble fraction of neurons treated with iBEp versus DMSO was analyzed and plotted as log 2-fold change vs-log 10 (P-value). Green dots represent proteins enriched in the iBEp treatment compared to DMSO treatment. (FIG. 4G) Graphs plotting the log 2-fold change of select Neuroproteasome substrates enriched in the sarkosyl-soluble fraction from MS analysis in (FIG. 4F) compared to UPS substrates and autophagy markers ** p<0.01 (adjusted p-value after multiple corrections). (FIG. 4H) Differential enrichment of proteins in the sarkosyl-insoluble fraction of neurons treated with iBEp versus DMSO was analyzed and plotted as log 2-fold change vs −log 10 (P-value). Green dots represent proteins enriched in the iBEp treatment compared to DMSO treatment. (FIG. 4I) (Left) Identification of proteins which are exclusively enriched in the insoluble fraction with no corresponding change in the soluble fraction (red). Plk2 represents the only protein which is enriched in the soluble fraction with no corresponding change in the insoluble fraction (green). Proteins plotted as differences in log 2 fold changes. (Right) Graphs plotting the log 2 fold changes of insoluble Tau (top) and soluble Tau (bottom) enriched in neurons treated with iBEp vs DMSO. ** p<0.01 (adjusted p-value after multiple corrections).
FIG. 5A-5G: Neuroproteasomes are differentially regulated by ApoE isoforms to determine formation of endogenous sarkosyl-insoluble Tau inclusions. […]

endogenous mouse Tau = test: Sarkosyl fractionation and Tau immunoblot, WT primary cortical neurons; assay type: cell-based; conditions: 1 μM, 12 hours, vs DMSO
From the text: as §2

neuroproteasomes = molecular target: T1, neuroproteasomes (Mus musculus, UniProt O55234+P70195+Q60692); test: Suc-LLVY-AMC proteasome activity, membrane fraction of iBEp-treated neurons; assay type: cell-based; conditions: 6 hours, DIV14 neurons, vs DMSO
T1 construct: endogenous in cells; host or cells: primary cortical neurons from WT mice (DIV13-14); membrane and cytosolic fractions
From the text: (§4) (FIG. 4A) (Top) Structure of azide-PEG24-epoxomicin handle to enable rapid conjugation of linkers to global proteasome inhibitor epoxomicin using Click chemistry. (Bottom) Structure of Neuroproteasome-specific inhibitor impermeant Biotin-PEG24-Epoxomicin (iBEp). (FIG. 4B) Assessing permeability of iBEp in primary neurons. […] Cytosolic (Cyto) and membrane (Mem) fractions were immunoblotted using indicated antibodies. (FIG. 4C) Proteasome catalytic activity of membrane (Mem) and cytosolic (Cyto) fractions of neurons treated with iBEp. […] Proteasome catalytic activity was assessed by monitoring degradation of Suc-LLVY-AMC; proteasome-dependent cleavage of the substrate increases AMC fluorescence. N=3 biological replicates. **** p<0.0001 by One-Way ANOVA. (FIG. 4D) Primary neurons treated with iBEp probed for autophagy markers. […] Quantification of p62, LC3b, and Ulk1 intensities normalized to Actin. […] Sarkosyl-soluble and insoluble fractions were labeled with Tandem Mass Tags (TMTpro) for quantitative mass spectrometry. (FIG. 4F) Differential enrichment of proteins in the sarkosyl-soluble fraction of neurons treated with iBEp versus DMSO was analyzed and plotted as log 2-fold change vs-log 10 (P-value). […] (FIG. 4H) Differential enrichment of proteins in the sarkosyl-insoluble fraction of neurons treated with iBEp versus DMSO was analyzed and plotted as log 2-fold change vs −log 10 (P-value). […]

Tau [2] = test: iBEp dose range in hTau/ApoE double KI primary neurons, sarkosyl-insoluble Tau; assay type: cell-based, mouse
primary cortical neurons [3] = test: Permeability of iBEp in primary cortical neurons: membrane fractionation and biotin blot; assay type: cell-based, mouse; conditions: 1 μM, 1, 6 and 24 hours, cytosolic vs membrane fraction
From the text: as §4

[4] = test system: Thioflavin S-positive aggregates; test: Thioflavin S staining of hippocampal sections of hTau-KI mice after stereotactic injection; conditions: stereotactic injection, 72 hours, vs vehicle
Procedure: (§5) Scale bars=15 μm (FIG. 6C) Immunohistochemical analysis of mice stereotactically injected with iBEp to measure Tau phosphorylation in vivo. […] Mice were collected 72 hours post injection and sections were stained using indicated antibodies: NeuN (blue) and AT8 (pTau, green). 4×, 20× and 60× representative images are shown. Quantification of pTau signal intensity was normalized to NeuN intensity. Analysis was done blinded to experimental condition. Data are mean±SEM normalized either to DMSO or iBEP+CHX. n=2 sections/animal, ** p<0.01 by Paired T-test/experiment. Scale bars=500 μm (left), scale bar=25 μm (right). (FIG. 6D) Immunohistochemical analysis of mice stereotactically injected with iBEp to measure Thioflavin-S positive Tau aggregates in vivo. Four-to-five month old hTau-KI mice were treated identically to (FIG. 6C), but stained for Thioflavin S (magenta) to visualize β-sheet containing aggregates and immunostained with NeuN (blue). N=7 (3M, 4F). Left, Vehicle-treated hippocampus, Right, iBEp-treated hippocampus (red). […] Data are quantification of number of flame-like Thioflavin-S positive inclusions. Counting and analysis was blinded to experimental condition. *** p<0.001 by one-way ANOVA. Scale bars=100 μm. (FIG. 6E) Higher magnification image of flame-like Thioflavin S-positive inclusions (magenta), NeuN (blue). Top, ThioS alone, Bottom, merge with NeuN. Scale bar=20 μm. […]

phosphorylated Tau [5] = test: Immunohistochemistry for phosphorylated Tau (AT8) in hTau-KI mice after stereotactic injection; conditions: stereotactic injection, 72 hours, vs contralateral control
Procedure: as §5

newly synthesized Tau = test: Puro-PLA-Tau: proximity ligation with puromycylation for newly synthesized Tau; assay type: cell-based
From the text: Analysis was done blinded to experimental condition. […] Scale bar=100 μm (right).

[6] = iBEp permeability in vivo: stereotactic CA1 injection and membrane fractionation; parameters: species or system mouse; conditions: stereotactic injection into CA1, 72 hours
Tau [7] = test: Sarkosyl-insoluble Tau in hippocampus of hTau-KI mice after stereotactic injection; assay type: in vivo, mouse; conditions: 6.4 μM iBEp stereotactic, contralateral vehicle, 72 hours
Tau [8] = test: Quantitative TMT phosphoproteomics of Tau in iBEp-treated WT neurons; assay type: cell-based, mouse; conditions: 1 μM, 1, 6 or 24 hours, WT primary neurons
From the text: We noticed that neuroproteasome inhibition induces the shift of sarkosyl-insoluble Tau into a species which migrates at a higher molecular weight on an SDS-PAGE gel, at approximately 64 kDa (FIG. 5A, FIG. 5B, FIG. 5D, FIG. 5F, FIG. 5G). Similar shifts in molecular weight of Tau are observed in the AD brain and is a hallmark phenotype of multiple neurodegenerative disorders (109, 110). This molecular weight shift can in part be due to Tau phosphorylation at many residues. Therefore, we wanted to address whether iBEp-induced Tau aggregates are phosphorylated. Rather than profiling by a panel of phospho-specific antibodies against Tau, we took a more unbiased approach and measured Tau phosphorylation by quantitative phosphoproteomics. We treated primary WT neurons with iBEp for either 1, 6, or 24 hours and then performed sarkosyl fractionations.

primary cortical neurons [9] = test: Quantitative TMT proteomics of sarkosyl-soluble and sarkosyl-insoluble fractions; assay type: cell-based, mouse; conditions: 1 and 6 hours
From the text: as §3, with “(FIG. 4I) (Left) Identification of proteins which are exclusively enriched in the insoluble fraction with no corresponding change in the soluble fraction (red). Plk2 represents the only protein which is enriched in the soluble fraction with no corresponding change in the insoluble fraction (green). Proteins plotted as differences in log 2 fold changes. (Right) Graphs plotting the log 2 fold changes of insoluble Tau (top) and soluble Tau (bottom) enriched in neurons treated with iBEp vs DMSO. ** p<0.01 (adjusted p-value after multiple corrections).” left out

proteasome [10] = molecular target: T2, proteasome (Mus musculus, UniProt O55234+P70195+Q60692); test: Covalent biotinylation of proteins in iBEp-treated neurons (SDS-PAGE biotin signal); assay type: cell-based
T2 construct: endogenous in cells
From the text: as §1

cytosolic proteasomes = molecular target: T3, cytosolic proteasomes (Mus musculus, UniProt O55234+P70195+Q60692); test: Suc-LLVY-AMC proteasome activity, cytosolic fraction of iBEp-treated neurons; assay type: cell-based; conditions: 6 hours, DIV14 neurons, vs DMSO
T3 construct: endogenous in cells; host or cells: primary cortical neurons from WT mice (DIV13-14); membrane and cytosolic fractions
From the text: as §4

phosphorylated Tau [11] = test: Immunocytochemistry for phosphorylated Tau (CP13) in hTau-KI hippocampal neurons; assay type: cell-based, mouse; conditions: 12 hours, primary hippocampal hTau-KI neurons, vs controls
[12] = dose range 1000-1.6 nM, hTau/ApoE double KI neurons

Compound: Sulfo-MG132 [SulfoMG]
- efficacy against the proteasome relative to the parent inhibitor (proteasome [1]): significant inhibition of proteasomes using SulfoMG despite the moderate loss of efficacy compared to MG132
- sarkosyl-insoluble Tau, hTau-KI neurons (human Tau): induces similar partitioning of hTau into the sarkosyl-insoluble fraction as iBEp

Compound: CC[C@H](C)[C@H](NC(=O)[C@H]([C@@H](C)CC)N(C)C(C)=O)C(=O)N[C@H](C(=O)N[C@@H](CC(C)C)C(=O)[C@@]1(C)CO1)[C@@H](C)O [Epoxomicin, reference compound]
- LC3bI/II (p62, LC3bI/II, Ulk1): little to no change in LC3bI/II
- p62 levels (p62, LC3bI/II, Ulk1): strong induction of p62
- sarkosyl-insoluble Tau, WT neurons (endogenous mouse Tau): no change in sarkosyl-insoluble Tau
- sarkosyl-insoluble Tau, hTau-KI neurons (human Tau): no change in sarkosyl-insoluble Tau

Compound: CC[C@H](C)[C@H](NC(=O)CCOCCOCCOCCOCCOCCOCCOCCOCCOCCOCCOCCOCCOCCOCCOCCOCCOCCOCCOCCOCCOCCOCCOCCOCCn1cc(COCCOCCOCCOCCNC(=O)CCCC[C@@H]2SC[C@@H]3NC(=O)N[C@@H]32)nn1)C(=O)N[C@H](C(=O)N[C@H](C(=O)N[C@@H](CC(C)C)C(=O)[C@@]1(C)CO1)[C@@H](C)O)[C@@H](C)CC [iBEp, Biotin-PEG24-Epoxomicin]
- proteasome activity in the membrane fraction (neuroproteasomes): almost entirely abrogated
- sarkosyl-insoluble Tau in hTau/E4-dKI neurons at the lowest dose (Tau [2]; dose range 1000, 200, 40, 8 and 1.6 nM): accumulation of sarkosyl-insoluble Tau in hTau/E4-dKI neurons
- susceptibility to Tau aggregation, E4 neurons vs E3 neurons (more susceptible) (Tau [2]; [12]): over 25 fold
- susceptibility to Tau aggregation, hTau/E2-dKI vs hTau/E3-dKI neurons (less susceptible) (Tau [2]; [12]): over 10 fold
- location of the biotin signal of covalent proteasome inhibition (permeability) (primary cortical neurons [3]): only in the membrane fraction, and not in the cytosol
- ThioS staining in the CA1 region of hippocampi [4]: strong increase in ThioS staining
- phosphorylated Tau (AT8) signal in injected hippocampi (phosphorylated Tau [5]): threefold induction of phosphorylated Tau signal
- increase in Puro-PLA-Tau signal relative to DMSO (newly synthesized Tau; DIV14 primary hippocampal neurons, puromycin 10 minutes): ~3.5 fold
- newly synthesized Tau puncta greater than 24 nm in diameter (newly synthesized Tau; normalized to puncta number per size bin with DMSO): over twofold increase
- injected concentration at which penetration into the cytosol is observed [6]: 64 µM
- LC3bI/II (p62, LC3bI/II, Ulk1): no change in either p62 or LC3bI/II levels
- p62 levels (p62, LC3bI/II, Ulk1): no change in either p62 or LC3bI/II levels
- sarkosyl-insoluble Tau in hippocampi of hTau-KI mice (Tau [7]): strong increase of sarkosyl-insoluble Tau
- efficacy against the proteasome relative to the parent inhibitor (proteasome [1]): moderately reduces the efficacy of iBEp relative to Epoxomicin
- Tau phosphorylation sites (human S202, T205, T217, S404) (Tau [8]): time-dependent increase in Tau phosphorylation at only 4 of 26 identified sites
- sarkosyl-insoluble Tau, WT neurons (endogenous mouse Tau): significant increase in sarkosyl-insoluble Tau
- cell penetration judged from proteomics (no UPS substrates or autophagy markers accumulate) (primary cortical neurons [9]; DIV12-14 primary cortical neurons): does not detectably penetrate cells
- number of proteins increasing in the soluble fraction (primary cortical neurons [9]; vs DMSO): over 250 proteins
- number of proteins that become sarkosyl-insoluble (primary cortical neurons [9]; vs DMSO): 52 proteins
- proteins covalently biotinylated in treated neurons (specificity) (proteasome [10]): covalent biotinylation of only three proteins
- cytosolic proteasome activity (cytosolic proteasomes): remains completely intact
- sarkosyl-insoluble Tau, hTau-KI neurons (human Tau): significant increase in sarkosyl-insoluble Tau
- CP13 (phosphorylated S202 Tau) signal (phosphorylated Tau [11]): significant elevation of CP13 signal
